The source of these data is patent US20070128217A1 (priority 2003, published 2007).

For test [1], the system named is control sera (pooled serum of ten healthy LUMC hospital workers; commercial negative donor pooled serum from the Dutch bloodbank). The format is binding, human. On the set-up: Binding of Control serum LUMC to linear peptides / Binding of Control serum Blood-bank to linear peptides / Binding of Control serum LUMC to looped peptides / Binding of Control Serum Blood-Bank to Looped peptides / Binding of Control serum LUMC to linear peptides of the protein M of SARS-CoV Urbani / Binding of Control serum Blood-bank to linear peptides of the protein M of SARS-CoV Urbani / Binding of Control serum LUMC to looped peptides of the protein M of SARS-CoV Urbani / Binding of Control Serum Blood-Bank to Looped peptides of the protein M of SARS-CoV Urbani: unit not given here.

In test [2] the test system is antibodies in sera from SARS patients (sera 1a, 1b, 2, 6, 37, 62, London, SARS-yellow, SARS-green). The format is binding, human. More on the design: Binding of serum 6 to linear peptides of protein X1 of SARS-CoV Urbani / Binding of serum 37 to linear peptides of protein X1 of SARS-CoV Urbani / Binding of serum 6 to looped/cyclic peptide (PEPSCAN-ELISA) / Binding of serum 37 to looped/cyclic peptide (PEPSCAN-ELISA) / Binding of serum 37 to looped/cyclic peptides of protein X1 of SARS-CoV Urbani / Binding of serum 6 to linear peptides of protein X2 / Binding of serum 37 to linear peptides of protein X2 / Binding of serum 37 to looped/cyclic peptides of protein X2 of SARS-CoV Urbani / Binding of serum 6 to linear peptides of protein M of SARS-CoV Urbani / Binding of serum 37 to linear peptides of protein M of SARS-CoV Urbani / Binding of serum 6 to looped/cyclic peptides of protein M of SARS-CoV Urbani / Binding of serum 37 to looped/cyclic peptides of protein M of SARS-CoV Urbani / Binding of serum 6 to linear peptides of protein X3 of SARS-CoV Urbani / Binding of serum 37 to linear peptides of protein X3 of SARS-CoV Urbani / Binding of serum 37 to looped/cyclic peptides of protein X3 of SARS-CoV Urbani / Binding of serum 6 to linear peptides of protein X4 of SARS-CoV Urbani / Binding of serum 37 to linear peptides of protein X4 of SARS-CoV Urbani / Binding of serum 37 to looped/cyclic peptides of protein X4 of SARS-CoV Urbani / Binding of serum 6 to linear peptides of protein X5 of SARS-CoV Urbani / Binding of serum 37 to linear peptides of protein X5 of SARS-CoV Urbani / Binding of serum 37 to looped/cyclic peptides of protein X5 of SARS-CoV Urbani / Binding of serum 6 to linear peptides of protein N of SARS-CoV Urbani / Binding of serum 37 to linear peptides of protein N of SARS-CoV Urbani / Binding of serum 6 to linear peptide (PEPSCAN-ELISA) / Binding of serum 1a to looped/cyclic peptides of protein N of SARS-CoV Urbani / Binding of serum 1b to looped/cyclic peptides of protein N of SARS-CoV Urbani / Binding of serum 2 to looped/cyclic peptides of protein N of SARS-CoV Urbani / Binding of serum 6 to looped/cyclic peptides of protein N of SARS-CoV Urbani / Binding of serum 37 to looped/cyclic peptides of protein N of SARS-CoV Urbani / Binding of serum 62 to looped/cyclic peptides of protein N of SARS-CoV Urbani / Binding of serum London to looped/cyclic peptides of protein N of SARS-CoV Urbani / Binding of serum SARS-green to looped/cyclic peptides of protein N of SARS-CoV Urbani: unit not given here.

Test [3] relates to rabbit serum obtained by immunizing a rabbit with the SARS-CoV strain Frankfurt 1. In kind it is binding. More on the design: Binding of a rabbit serum to linear peptides / Binding of a rabbit serum to looped peptides / Rabbit serum linear peptides / Rabbit serum looped peptides / Binding of a rabbit serum to linear peptides of protein N of SARS-CoV Urbani (Rabbit serum linear peptides) / Binding of a rabbit serum to looped/cyclic peptides of protein N of SARS-CoV Urbani (Rabbit serum looped peptides): unit not given here.

Take RINWVTGGIAIAMAC: in test [1], the “Binding of Control Serum Blood-Bank to Looped peptides of the protein M of SARS-CoV Urbani” value was found to be 0.5, the “Binding of Control serum Blood-bank to linear peptides of the protein M of SARS-CoV Urbani” value is 0.8, the “Binding of Control serum LUMC to linear peptides of the protein M of SARS-CoV Urbani” value was 0.8 and the “Binding of Control serum LUMC to looped peptides of the protein M of SARS-CoV Urbani” value worked out at 0.8. In test [2], the “Binding of serum 1a to linear peptides of protein M of SARS-CoV Urbani” value is listed as 0.7, the “Binding of serum 1a to looped/cyclic peptides of protein M of SARS-CoV Urbani” value was determined as 0.7, the “Binding of serum 1b to linear peptides of protein M of SARS-CoV Urbani” value came out at 0.7 and the “Binding of serum 1b to looped/cyclic peptides of protein M of SARS-CoV Urbani” value was determined as 0.2. In addition, in test [2], the “Binding of serum 2 to linear peptides of protein M of SARS-CoV Urbani” value turned out to be 0.6, the “Binding of serum 2 to looped/cyclic peptides of protein M of SARS-CoV Urbani” value is on record as 0.6, the “Binding of serum 6 to linear peptides of protein M of SARS-CoV Urbani” value came out at 0.8 and the “Binding of serum 6 to looped/cyclic peptides of protein M of SARS-CoV Urbani” value turned out to be 0.4. Moreover, in test [2], the “Binding of serum 37 to linear peptides of protein M of SARS-CoV Urbani” value is 0.5, the “Binding of serum 37 to looped/cyclic peptides of protein M of SARS-CoV Urbani” value came to 0.7, the “Binding of serum 62 to linear peptides of protein M of SARS-CoV Urbani” value was determined as 0.5 and the “Binding of serum 62 to looped/cyclic peptides of protein M of SARS-CoV Urbani” value came out at 0.7. Further, in test [2], the “Binding of serum London to linear peptides of protein M of SARS-CoV Urbani” value is on record as 0.5, the “Binding of serum London to looped/cyclic peptides of protein M of SARS-CoV Urbani” value amounted to 0.2, the “Binding of serum SARS-green to linear peptides of protein M of SARS-CoV Urbani” value came to 0.6 and the “Binding of serum SARS-green to looped/cyclic peptides of protein M of SARS-CoV Urbani” value is 0.3. For the same sequence, in test [2], the “Binding of serum SARS-yellow to linear peptides of protein M of SARS-CoV Urbani” value is 0.3 and the “Binding of serum SARS-yellow to looped/cyclic peptides of protein M of SARS-CoV Urbani” value came to 0.7. Moreover, in test [3], the “Rabbit serum linear peptides” value was found to be 0.2 and the “Rabbit serum looped peptides” value was 0.4.

As for RLFARTRSMWSFNPE, in test [1], the “Binding of Control Serum Blood-Bank to Looped peptides of the protein M of SARS-CoV Urbani” value is recorded as 0.7, the “Binding of Control serum Blood-bank to linear peptides of the protein M of SARS-CoV Urbani” value is recorded as 0.8, the “Binding of Control serum LUMC to linear peptides of the protein M of SARS-CoV Urbani” value amounted to 0.5 and the “Binding of Control serum LUMC to looped peptides of the protein M of SARS-CoV Urbani” value came out at 0.5. Moreover, in test [2], the “Binding of serum 1a to linear peptides of protein M of SARS-CoV Urbani” value is given as 0.9, the “Binding of serum 1a to looped/cyclic peptides of protein M of SARS-CoV Urbani” value is reported as 0.7, the “Binding of serum 1b to linear peptides of protein M of SARS-CoV Urbani” value worked out at 0.9 and the “Binding of serum 1b to looped/cyclic peptides of protein M of SARS-CoV Urbani” value is recorded as 0.8. For the same sequence, in test [2], the “Binding of serum 2 to linear peptides of protein M of SARS-CoV Urbani” value was 0.6, the “Binding of serum 2 to looped/cyclic peptides of protein M of SARS-CoV Urbani” value is 0.5, the “Binding of serum 6 to linear peptides of protein M of SARS-CoV Urbani” value worked out at 0.4 and the “Binding of serum 6 to looped/cyclic peptides of protein M of SARS-CoV Urbani” value came to 0.8. For the same sequence, in test [2], the “Binding of serum 37 to linear peptides of protein M of SARS-CoV Urbani” value stood at 1.0, the “Binding of serum 37 to looped/cyclic peptides of protein M of SARS-CoV Urbani” value is 0.6, the “Binding of serum 62 to linear peptides of protein M of SARS-CoV Urbani” value is given as 0.9 and the “Binding of serum 62 to looped/cyclic peptides of protein M of SARS-CoV Urbani” value was found to be 0.6. For the same sequence, in test [2], the “Binding of serum London to linear peptides of protein M of SARS-CoV Urbani” value was determined as 0.4, the “Binding of serum London to looped/cyclic peptides of protein M of SARS-CoV Urbani” value is given as 0.2, the “Binding of serum SARS-green to linear peptides of protein M of SARS-CoV Urbani” value was determined as 0.5 and the “Binding of serum SARS-green to looped/cyclic peptides of protein M of SARS-CoV Urbani” value amounted to 0.4. Further, in test [2], the “Binding of serum SARS-yellow to linear peptides of protein M of SARS-CoV Urbani” value is 0.1 and the “Binding of serum SARS-yellow to looped/cyclic peptides of protein M of SARS-CoV Urbani” value is listed as 0.4. In test [3], the “Rabbit serum linear peptides” value is listed as 0.4 and the “Rabbit serum looped peptides” value is 0.0.
